Assay results: patent EP2647628A1, “Substituted tricyclic compounds with activity towards ep1 receptors” (Almirall, S.A., priority 2012, dated 2013)
pKi: −log10 of the molar value.

What follows are compounds tested against T1, human EP1 receptor (Homo sapiens, UniProt P34995) (assay: Human EP1 receptor radioligand binding assay). Conditions: [3H]-PGE2 (10 nM), transfected HEK-293 cell membranes, pH 6.0, 25 °C, 60 minutes; Ki by Cheng-Prusoff equation.
T1 construct: expressed in transfected cells; host or cells: HEK-293 cell membranes
T1 sequence (P34995 1-402): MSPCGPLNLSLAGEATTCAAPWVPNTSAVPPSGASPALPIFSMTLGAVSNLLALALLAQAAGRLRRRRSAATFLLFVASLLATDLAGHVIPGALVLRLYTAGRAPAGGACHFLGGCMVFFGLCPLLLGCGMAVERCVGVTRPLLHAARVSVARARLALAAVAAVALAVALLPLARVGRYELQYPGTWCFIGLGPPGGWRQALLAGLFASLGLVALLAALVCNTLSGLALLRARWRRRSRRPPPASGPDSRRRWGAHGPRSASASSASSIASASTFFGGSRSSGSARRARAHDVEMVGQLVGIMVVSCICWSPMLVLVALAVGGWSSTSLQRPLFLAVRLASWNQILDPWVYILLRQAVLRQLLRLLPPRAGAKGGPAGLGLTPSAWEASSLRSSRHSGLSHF
Experimental: To investigate binding properties of EP1 receptor ligands to human EP1 receptor, transfected HEK-293 cell membranes and [3H]-PGE2 (Perkin Elmer) were used. In 96-well plates the assay was carried out with a total reaction volume of 250 µl, containing 25 µl of membrane suspension (30 µg protein/well), 25 µl of [3H]-PGE2 (10 nM) in either absence or presence of 25 µl of either buffer or PGE2 (10 µM) for total and non-specific binding, respectively. Binding buffer contained 10 mM MES, 1 mM MgCl2 and 1 mM EDTA at pH 6.0. Plates were incubated at 25 °C for 60 minutes. After the incubation period, 200 µl of incubate were transferred to MultiScreen HTS, FB plates (Millipore), filtered and plates were washed 6 times with ice-cold 10 mM MES, 1 mM MgCl2 and 1 mM EDTA at pH 6.0. Filters were dried and counted in a MicroBeta scintillation counter (Perkin-Elmer) using EcoScint liquid scintillation cocktail.
Percentage inhibition was calculated relating compounds activity to the 0% inhibition of the wells incubated with 10 nM [3H]-PGE2 alone (total binding) and 100% inhibition of the wells incubated with 10 nM [3H]-PGE2 plus 10 µM PGE2 (non-specific binding). Competition binding curves were carried out by assaying 6 different concentrations with duplicated points. The inhibition constant (Ki) of each compound was calculated by the Cheng-Prusoff equation: Ki = IC50 /(1+[L]/KD) [formula] where IC50 is the concentration of compound that displaces the binding of radioligand by 50%, [L] is the free concentration of radioligand and KD is the dissociation constant of each radioligand. IC50 values were obtained by fitting the data with non-linear regression using XIFit software (IDBS).
Work on `Cc1ccc2c(c1)[C@@H]1CCC[C@@H]1[C@H](c1ccc(C(=O)O)cc1)N2` (racemic) [EXAMPLE 04, 4-((3aS,4R,9bR)-2,3,3a,4,5,9b-hexahydro-8-methyl-1H-cyclopenta[c]quinolin-4-yl)benzoic acid] yielded a pKi of 6.30 to 7.00.
Work on `COc1ccc2c(c1)[C@@H]1CCC[C@@H]1[C@H](c1ccc(C(=O)O)cc1)N2` (racemic) [EXAMPLE 07, 4-((3aS,4R,9bR)-2,3,3a,4,5,9b-hexahydro-8-methoxy-1H-cyclopenta[c]quinolin-4-yl)benzoic acid] yielded a pKi greater than 7.00.
`O=C(O)c1ccc([C@@H]2Nc3ccc(Cl)cc3[C@@H]3CCC[C@@H]32)cc1` (single isomer, unassigned) [EXAMPLE 06a] showed a pKi greater than 7.00.
With `Cc1ccc2c(c1)[C@@H]1CCC[C@@H]1[C@H](c1ccc(C(=O)O)cc1C)N2` (single isomer, unassigned) [EXAMPLE 37a] the pKi was greater than 7.00.
Work on `O=C(O)c1ccc([C@@H]2Nc3ccc(Br)cc3[C@@H]3CCC[C@@H]32)cc1` [EXAMPLE 02, 4-((3aS,4R,9bR)-8-bromo-2,3,3a,4,5,9b-hexahydro-1H cyclopenta[c]quinolin-4-yl)benzoic acid] yielded a pKi of 6.30 to 7.00.
In the case of `CCCc1ccc2c(c1)[C@@H]1CCC[C@@H]1[C@H](c1ccc(C(=O)O)cc1)N2` [EXAMPLE 12, 4-((3aS, 4R, 9bR)-2,3,3a, 4,5,9b-hexahydro-8-propyl-1H-cyclopenta[c]quinolin-4-yl)benzoic acid], the pKi was less than 6.30.
With `CC(C)c1ccc2c(c1)[C@@H]1CCC[C@@H]1[C@H](c1ccc(C(=O)O)cc1)N2` [EXAMPLE 18, 4-((3aS,4R,9bR)-2,3,3a,4,5,9b-hexahydro-8-isopropyl-1H-cyclopenta[c]quinolin-4-yl)benzoic acid] the pKi was 6.30 to 7.00.
`N#Cc1ccc2c(c1)[C@@H]1CCC[C@@H]1[C@H](c1ccc(C(=O)O)cc1)N2` [EXAMPLE 19, 4-((3aS,4R,9bR)-8-cyano-2,3,3a,4,5,9b-hexahydro-1H-cyclopenta[c]quinolin-4-yl)benzoic acid] gave a pKi of less than 6.30.
`Cc1cc2c(cc1Cl)N[C@@H](c1ccc(C(=O)O)cc1)[C@H]1CCC[C@@H]21` [EXAMPLE 29, 4-((3aS,4R,9bR)-7-chloro-2,3,3a,4,5,9b-hexahydro-8-methyl-1H-cyclopenta[c]quinolin-4-yl)benzoic acid] gave a pKi of less than 6.30.
With `Cc1ccc2c(c1)[C@@H]1CCC[C@@H]1[C@H](c1ccc(C(=O)O)cc1)N2C` [EXAMPLE 30, 4-((3aS,4R,9bR)-2,3,3a,4,5,9b-hexahydro-5,8-dimethyl-1H-cyclopenta[c]quinolin-4-yl)benzoic acid] the pKi was less than 6.30.
`Cc1ccc2c(c1)[C@@H]1CCC[C@@H]1[C@H](c1ccc(C(=O)O)c(C)c1)N2` [EXAMPLE 36, 4-((3aS, 4R, 9bR)-2,3,3a, 4,5,9b-hexahydro-8-methyl-1H-cyclopenta[c]quinolin-4-yl)-2-methylbenzoic acid] gave a pKi of less than 6.30.
`Cc1cc(C(=O)O)ccc1[C@@H]1Nc2ccc(C3CC3)cc2[C@@H]2CCC[C@@H]21` [EXAMPLE 43, 4-((3aS, 4R, 9bR)-8-cyclopropyl-2,3,3a, 4,5,9b-hexahydro-1H cyclopenta[c]quinolin-4-yl)-3-methylbenzoic acid] was tested, and the pKi was 6.30 to 7.00.
In the case of `Cc1ccc2c(c1)[C@@H]1CCC[C@@H]1[C@H](c1ccc(C(=O)O)cc1Cl)N2` [EXAMPLE 47, 3-chloro-4-((3aS, 4R, 9bR)-2,3,3a, 4,5,9b-hexahydro-8-methyl-1H-cyclopenta[c]quinolin-4-yl)benzoic acid], the pKi was 6.30 to 7.00.
Compound `CCc1cc(C(=O)O)ccc1[C@H]1Nc2ccc(OC)cc2[C@@H]2CCC[C@H]12` [EXAMPLE 55, 3-ethyl-4-((3aS,4S,9bR)-2,3,3a,4,5,9b-hexahydro-8-methoxy-1H-cyclopenta[c]quinolin-4-yl)benzoic acid] has a pKi of 6.30 to 7.00.
Compound `Cc1ccc2c(c1)[C@@H]1CCC[C@@H]1[C@@H](c1c(C)cc(C(=O)O)cc1C)N2` [EXAMPLE 56, 4-((3aS,4S,9bR)-2,3,3a,4,5,9b-hexahydro-8-methyl-1H cyclopenta[c]quinolin-4-yl)-3,5-dimethylbenzoic acid] has a pKi greater than 7.00.
Compound `COc1ccc2c(c1)[C@@H]1CCC[C@@H]1[C@@H](c1c(C)cc(C(=O)O)cc1C)N2` [EXAMPLE 57, 4-((3aS,4S,9bR)-2,3,3a,4,5,9b-hexahydro-8-methoxy-1H-cyclopenta[c]quinolin-4-yl)-3,5-dimethylbenzoic acid] has a pKi greater than 7.00.
In the case of `Cc1ccc2c(c1)[C@@H]1CCC[C@@H]1[C@H](c1cc(C(=O)O)nn1C)N2` [EXAMPLE 62, 5-((3aS,4R,9bR)-2,3,3a,4,5,9b-hexahydro-8-methyl-1H-cyclopenta[c]quinolin-4-yl)-1-methyl-1H-pyrazole-3-carboxylic acid], the pKi was less than 6.30.
`COc1ccc2c(c1)[C@]1(C)CCC[C@@H]1[C@H](c1ccc(C(=O)O)cc1)N2` [EXAMPLE 69, 4-((3aS,4R,9bR)-2,3,3a,4,5,9b-hexahydro-8-methoxy-9b-methyl-1H-cyclopenta[c]quinolin-4-yl)benzoic acid] showed a pKi of 6.30 to 7.00.
With `Cc1ccc2c(c1)[C@]1(C)CCC[C@@H]1[C@H](c1ccc(C(=O)O)cc1C)N2` [EXAMPLE 75, 4-((3aS, 4R, 9bR)-2,3,3a, 4,5,9b-hexahydro-8,9b-dimethyl-1H-cyclopenta[c]quinolin-4-yl)-3-methylbenzoic acid] the pKi was 6.30 to 7.00.
